Measured values from patent US20250073249A1, “STEROID COMPOUND, AND PREPARATION METHOD THEREFOR AND USE THEREOF” (SHANGHAI INSTITUTE OF MATERIA MEDICA, CHINESE ACADEMY OF …, priority 2022, published 2025).
Positions count from the first letter of the chain named. pIC50: −log10 of the molar value. Values belong to the compound of their own block, whether it stands above or below them.

Tests used:
[1] = test system: 22RV1 prostate cancer cells; assay: Anti-proliferative activity against resistant 22RV1 cells expressing AR-V7; format: cell-based; conditions: for Activity against tumor cells expressing AR splice variants: 22RV1 cells, in words; for pIC50: Homo sapiens, 22RV1 cells expressing AR-V7 splice variant, read-out: Antiproliferative activity IC50
Protocol: (§1) The cells were then digested with trypsin and counted using an automated cell counter to determine cell density. The cell suspension was diluted to the desired density in growth medium. Subsequently, 100 μL of the cell suspension was seeded into 96-well plates and incubated at 37° C. with 5% CO2 for 24 hours. 10 μL of drug solution (including 3-fold serial dilutions of compounds or DMSO) was added to each well, and the plates were incubated at 37° C. with 5% CO2 for 6 days. Prior to measurement, the assay plates were equilibrated to room temperature. 40 μL of CellTiter-Glo® reagent was added to each well. The plates were mixed on an orbital shaker for 2 minutes to induce cell lysis. After incubation at room temperature for 60 minutes to stabilize the luminescence signal, the plates were read on an Envision plate reader.
The experimental procedure was essentially the same as that for LNCaP cells.

wild-type AR = target: T1, wild-type AR (Homo sapiens, UniProt P10275); assay: Wild-type AR antagonist activity test (luciferase reporter in HEK293 cells); format: cell-based; conditions: for pIC50: HEK293 cells, luciferase expression, DHT 1.5 nM, 24 hours; for AR antagonist activity, times higher than that of the control enzalutamide: ratio to enzalutamide IC50
T1 construct: expressed in transfected cells; host or cells: HEK293
T1 sequence (P10275 1-920): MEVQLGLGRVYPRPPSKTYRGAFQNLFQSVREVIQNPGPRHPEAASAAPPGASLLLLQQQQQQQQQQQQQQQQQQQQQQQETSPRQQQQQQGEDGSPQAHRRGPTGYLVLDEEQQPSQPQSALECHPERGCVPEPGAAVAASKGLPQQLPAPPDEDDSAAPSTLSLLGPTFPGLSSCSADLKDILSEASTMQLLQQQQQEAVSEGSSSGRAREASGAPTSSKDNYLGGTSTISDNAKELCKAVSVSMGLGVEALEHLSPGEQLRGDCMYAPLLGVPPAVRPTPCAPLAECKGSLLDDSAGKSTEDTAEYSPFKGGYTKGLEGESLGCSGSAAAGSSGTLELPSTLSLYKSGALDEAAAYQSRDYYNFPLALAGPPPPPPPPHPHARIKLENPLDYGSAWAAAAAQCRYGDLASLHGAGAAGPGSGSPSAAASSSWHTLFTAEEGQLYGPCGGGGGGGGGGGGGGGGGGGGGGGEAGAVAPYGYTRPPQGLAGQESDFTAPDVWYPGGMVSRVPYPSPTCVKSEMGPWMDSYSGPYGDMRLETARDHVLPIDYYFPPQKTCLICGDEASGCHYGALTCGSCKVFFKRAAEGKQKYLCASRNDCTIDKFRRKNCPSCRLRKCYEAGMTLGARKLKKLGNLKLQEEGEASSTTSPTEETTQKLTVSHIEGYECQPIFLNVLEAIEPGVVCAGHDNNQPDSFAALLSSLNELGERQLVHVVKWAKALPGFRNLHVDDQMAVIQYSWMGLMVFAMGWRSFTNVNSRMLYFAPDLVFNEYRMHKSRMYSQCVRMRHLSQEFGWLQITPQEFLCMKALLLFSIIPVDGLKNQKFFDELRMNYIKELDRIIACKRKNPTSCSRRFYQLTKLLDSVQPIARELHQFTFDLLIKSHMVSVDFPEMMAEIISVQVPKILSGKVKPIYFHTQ
Protocol: HEK293 cells were cultured in DMEM containing 10% fetal bovine serum (FBS) at 37° C. with 5% CO2. The cells were then digested with trypsin and counted. A 10 μL/well transfection solution was prepared in opti-MEM containing 5 ng androgen receptor clone, 100 ng pGL4.36 vector, and 315 nL fugene. […] The diluted cell suspension was seeded into 96-well plates at 90 μL (40,000 cells/well), and the plates were incubated for 24 hours. Then, 10 μL of drug solution (including gradient diluted compounds or DMSO) was added, and the plates were incubated for 30 minutes. […] After 24 hours of incubation, 100 μL of Steady-Glo was added to each well of the plate, the plate was shaken at room temperature for 20 minutes, and read on an Envision.

LNCaP cells = assay: In vitro LNCaP cell proliferation inhibition test (CellTiter-Glo); format: cell-based; conditions: for Maximum Inhibition (%) / pIC50: 6 days; for pIC50: Homo sapiens, read-out: Anti-proliferative activity IC50
Protocol: as §1

AR = target: T2, AR (Homo sapiens, UniProt P10275, T878A); assay: In vitro AR degradation activity test in LNCaP cells (ELISA, OD450); format: cell-based; conditions: LNCaP cells, 24 hours
T2 construct: endogenous in cells; host or cells: LNCaP
T2 sequence (P10275 1-920 T878A): T1 sequence (P10275 1-920) with T878A
Protocol: The cells were then digested with trypsin and counted using an automated cell counter. The cell suspension was diluted to the desired density in growth medium. The cell suspension was then seeded into 96-well plates at 100 μL per well, and the plates were incubated at 37° C. with 5% CO2 for 24 hours. The compounds were then diluted 200-fold to the final concentration with DMSO or 3-fold to the final concentration with culture medium. 50 μL of compound solution was transferred to the 96-well plate and incubated at 37° C. for 24 hours. After 24 hours of incubation, the cell plate was washed 3 times with DPBS, 100 μL of 1× lysis buffer was added to each well, and placed on ice for 30 minutes. The supernatant was collected. The protein in the cell lysate samples was quantified and then diluted to the required concentration. 100 μL of cell lysate sample was added to the appropriate wells, sealed with tape and pressed firmly on top of the wells, and the plate was incubated at 37° C. for 2 hours. The plate contents were then discarded, and washed 4 times with 1× wash buffer, 200 μL per well each time. 100 μL of reconstituted detection antibody was then added, the plate was sealed with tape and incubated at 37° C. for 1 hour. The aspiration/wash step was then repeated, 100 μL of reconstituted HRP-Linked secondary antibody was added to each well, the plate was sealed with tape and incubated at 37° C. for 30 minutes. The aspiration/wash step was then repeated, 100 μL of substrate solution was added to each well and incubated at 37° C. for 10 minutes, and finally 100 μL of stop solution was added to each well. The plate was gently tapped to ensure thorough mixing, and the OD450 nm was recorded.
Degradation rate (%)=(OD450_max−OD450_sample)/(OD450_max−OD450_min)×100,plotted using GraphPad Prism 5 software, and IC50 is calculated using SPSS software.

[2] = In vivo pharmacokinetics in rats after oral gavage; conditions: male SD rats, PO 10 mg/kg; for AUC(0-inf) / AUC(0-t) / half-life / Cmax / tmax: rat, plasma; for Cmax: read-out: Cmax; for tmax: read-out: tmax
Protocol: Male SD rats were randomly divided into 6 groups, 3 rats per group. The rats were fasted but not water-deprived for 12-14 h one day before dosing. The test samples were then dissolved in a solvent of 5% DMSO+30% PEG400+65% (0.5% MC) and administered by gavage at 10 mg/kg. Food was provided 4 h after dosing. Blood samples (0.10 mL) were collected via the orbital sinus at 0, 15, 30 min, 1, 2, 4, 6, 8, and 24 h, with EDTA-K2 as anticoagulant. Blood samples were placed on ice after collection and centrifuged to separate plasma within 30 minutes (centrifugation conditions: 5000 rpm, 10 minutes, 4° C.). 50.0 μL of plasma sample (taken from −80° C. freezer, thawed naturally at room temperature and vortexed for 30 seconds) was added to a 1.5 mL centrifuge tube, followed by addition of 500 μL internal standard solution (methanol (TEDIA, HPLC grade), acetonitrile (TEDIA, HPLC grade), formic acid (FA, ACROS ORGANICS, HPLC grade), water was laboratory-made ultrapure water (100.0 ng·mL−1)). The mixture was vortexed for 60 seconds and centrifuged for 3 minutes (centrifugal force 12000 rpm). 100 μL of the supernatant was transferred to a 96-well injection plate containing an equal volume of water, mixed by shaking, and analyzed by LC-MS/MS with an injection volume of 10 μL. The data acquisition and control system software was Analyst 1.5.1 software (Applied Biosystem). The chromatographic sample peaks were integrated automatically. The ratio of sample peak area to internal standard peak area was used as an indicator for regression with sample concentration.
The pharmacokinetic parameters of representative compounds of the present invention were tested in male SD rats after oral gavage administration at 10 mg/kg according to the above conventional method to examine the pharmacokinetic characteristics of the compounds of the present invention in rats.

ACE2 = ACE2 mRNA expression in A549 cells (qPCR); format: cell-based; conditions: 10 μM, 1 nM DHT, 48 h, Blank = 1
TMPRSS2 = TMPRSS2 mRNA expression in A549 cells (qPCR); format: cell-based; conditions: 10 μM, 1 nM DHT, 48 h, Blank = 1

pIC50 [1]: < 5.00
SMILES: CNC(=O)c1ccc(N2C(=S)N(c3cnc(C#N)c(C(F)(F)F)c3)C(=O)C23CCC3)cc1F [Apalutamide, apalutamide]
Activity against tumor cells expressing AR splice variants [1]: no activity

SMILES: Cc1cn(C2=CCC3C4CC=C5C[C@@H](NC(=O)c6ccnnc6)CC[C@]5(C)C4CC[C@]23C)cn1 (some centres unmarked) [Compound 13]
pIC50 (wild-type AR): 6.61
AR antagonist activity, times higher than that of the control enzalutamide (wild-type AR): 1.8 times
Maximum Inhibition (%) (LNCaP cells): 96.97%
pIC50 (LNCaP cells): 6.33
Anti-tumor activity and efficacy compared to enzalutamide (LNCaP cells; in words): comparable anti-tumor activity but significantly superior anti-tumor efficacy compared to enzalutamide
DC50 (AR): 2080 nM

SMILES: C[C@]12CC[C@H](NC(=O)c3ccnnc3)CC1=CCC1C2CC[C@]2(C)C(n3ccnc3)=CCC12 (some centres unmarked) [Compound 16]
Kel [2]: 0.296 h⁻¹
MRTPO [2]: 6.25 h
AUC(0-inf) [2]: 37500 ng·h/mL
AUC(0-t) [2]: 37400 ng·h/mL
half-life [2]: 2.36 h
Cmax [2]: 3240 ng/mL
tmax [2]: 4 h
Maximum Inhibition (%) (LNCaP cells): 92.41%
pIC50 (LNCaP cells): 6.42
DC50 (AR): 2760 nM

SMILES: C[C@]12CC[C@H](NC(=O)c3ccncc3)CC1=CCC1C2CC[C@]2(C)C(n3ccnc3)=CCC12 (stereo partly drawn) [Compound 17, N-((3S,10R,13S)-17-(1H-imidazol-1-yl)-10,13-dimethyl-2,3,4,7,8,9,10,11,12,13,14,15-dodecahydro-1H-cyclopenta[a]phenanthren-3-yl)isonicotinamide]
Kel [2]: 0.112 h⁻¹
MRTPO [2]: 15.5 h
AUC(0-inf) [2]: 65600 ng·h/mL
AUC(0-t) [2]: 28800 ng·h/mL
half-life [2]: 10 h
Cmax [2]: 4500 ng/mL
tmax [2]: 2 h
Maximum Inhibition (%) (LNCaP cells): 96.99%
pIC50 (LNCaP cells): 6.50
Anti-proliferative activity, fold improvement compared to abiraterone (LNCaP cells; ratio to abiraterone IC50): 8.8 fold
DC50 (AR): 1980 nM

SMILES: Cc1cn(C2=CCC3C4CC=C5C[C@@H](NC(=O)c6ccc([N+](=O)[O-])cc6)CC[C@]5(C)C4CC[C@]23C)cn1 (stereo partly drawn) [Compound 34, N-((3S,10R,13S)-17-(4-methyl-1H-imidazol-1-yl)-10,13-dimethyl-2,3,4,7,8,9,10,11,12,13,14,15-dodecahydro-1H-cyclopenta[a]phenanthren-3-yl)-4-nitrobenzamide]
pIC50 (wild-type AR): 7.15
AR antagonist activity, times higher than that of the control enzalutamide (wild-type AR): 6.2 times
DC50 (AR): 2600 nM

pIC50 [1]: < 5.00
SMILES: CC(O)c1cc(C(=O)N[C@@H](C)Cn2ccc(-c3ccc(C#N)c(Cl)c3)n2)[nH]n1 (some centres unmarked) [Darolutamide, darolutamide]
Activity against tumor cells expressing AR splice variants [1]: no activity

SMILES: CNC(=O)c1ccc(N2C(=S)N(c3ccc(C#N)c(C(F)(F)F)c3)C(=O)C2(C)C)cc1F [Enzalutamide, enzalutamide, reference compound]
Maximum Inhibition (%) (LNCaP cells): 55.16%
Activity against tumor cells expressing AR splice variants [1]: no activity

SMILES: CC1(C)C(=O)N(c2ccc(C#N)c(C(F)(F)F)c2F)C(=S)N1c1ccc(CCCc2ncco2)nc1 [Proxalutamide, proxalutamide, reference compound]
ACE2 mRNA level (ACE2): 0.463
TMPRSS2 mRNA level (TMPRSS2): 0.608
